Assay results published in PubChem BioAssay AID602211 (Sanford-Burnham Center for Chemical Genomics, 2012).
The source made the active and inactive calls.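 How the source made its calls: active means mean IC50 at or below 10 µM; inactive means the rest.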

Tested on: H9c2 cardiomyocytes, H2O2 protection, ATPLite viability, 2 h
Assay: H2O2-induced H9c2 cell death suppression – ATPLite luminescence, set 2, dose response (AID 602211);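 further: potency is for protection so actives keep ATP signal up against peroxide killing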

SMILES | IC50
COCCCNC(=O)/C(C#N)=C1\N=C(NC(=O)c2cccs2)c2ccccc21 | > 79 µM (inactive)
COc1ccc(Nc2nc(C(=O)N3CCc4cc(OC)c(OC)cc4C3)cs2)cc1 | 4.29 µM
NC(=O)c1cc2ccccc2o/c1=N\NC(=O)c1ccc(F)cc1 | 4.67 µM
NC(=O)c1nsc(C(=O)N(c2ccccc2F)C(C(=O)NCc2ccccc2)c2ccc(O)cc2)c1N (stereo not drawn) | 0.75 µM
COC(=O)c1[nH]c2ccccc2c1NC(=O)CNC1CCCCC1 | 8.49 µM
NS(=O)(=O)c1ccc(N=Cc2c(O)n(-c3nccs3)c(=O)c3ccccc23)cc1 | 4.2 µM
CCOC(=O)C1=C(COC(=O)/C=C/c2ccc(F)cc2)NC(=O)NC1C (stereo not drawn) | 5.54 µM
O=C(Nc1ccccc1)c1nc[nH]c1C(=O)NCCCCCCNC(=O)c1[nH]cnc1C(=O)Nc1ccccc1 | 5.52 µM
COC(=O)c1cccc(Nc2nc(-c3cccnc3)nc3ccccc23)c1 | 7.12 µM
COc1cc(C(=O)Nc2cc3c(cc2N2CCCCC2)n(C)c(=O)n3C)cc(OC)c1OC | 11.2 µM (inactive)
CS(=O)(=O)c1ccc(-c2cnc3c(NC=O)cc(-c4ccsc4)cn23)cc1 | 12.5 µM (inactive)
COc1cc(/C=C(\C#N)c2nc3ccc(C)cc3[nH]2)c([N+](=O)[O-])cc1OC | 9.31 µM
COc1cc(C(=O)Nc2nc(-c3cccs3)cs2)cc(OC)c1OC | 1.78 µM
COC(=O)c1ccc(C(C(=O)NCc2ccccc2)N(Cc2cccs2)C(=O)c2cnccn2)cc1 (stereo not drawn) | 5.53 µM
COc1cc(/C=C/c2nnc3c4ccccc4ncn23)cc(OC)c1OC | 4.47 µM
CCOC(=O)c1nn(-c2cccc(OC)c2)c2nc(Nc3ccccc3)cc(=O)n12 | > 79 µM (inactive)
O=CNc1cc(-c2ccc(C(=O)NC3CC3)cc2)cn2c(-c3ccccc3)cnc12 | 10.3 µM (inactive)
COCCn1cnc2c(c1=O)c1nc3ccccc3nc1n2/N=C/c1cccc(OC)c1 | 13.6 µM (inactive)
COc1ccc(-c2cc3nc(C)cc(N4CCN(C(=O)c5ccoc5)CC4)n3n2)cc1 | 69.1 µM (inactive)
NC(=O)c1nsc(C(=O)N(c2ccccc2)C(C(=O)NC2CCCC2)c2ccc3ncccc3c2)c1N (stereo not drawn) | 3.35 µM
CCOc1cc(/C=C(\C#N)C(=O)Nc2ccc(S(N)(=O)=O)cc2)ccc1OCCN1CCOCC1 | 8.4 µM
Brc1ccc(-c2ccc(/C=N/Nc3nc(N4CCOCC4)nc(N4CCOCC4)n3)o2)cc1 | 3.61 µM
COc1ccc2oc(C(=O)Nc3ccc(N4CCOCC4)cc3)c(C)c2c1 | > 79 µM (inactive)
COc1cc(C(=O)Nc2ccc(NC(=O)c3cccc(Cl)c3)nc2)cc(OC)c1OC | 2.96 µM

SMILES | IC50
COc1ccc(/C=N/NC(=O)c2ccc(COc3cccc4cccnc34)cc2)cc1OC | 3.89 µM
CCC(=O)N1CCN(c2ccccc2NC(=O)c2ccc(-c3cccc([N+](=O)[O-])c3)o2)CC1 | 1.99 µM
COc1ccc(C(=O)O/N=C(/c2ccccc2)c2ccncc2)cc1OC | 10.7 µM (inactive)
COc1ccc(-c2cc(NC=O)c3ncc(-c4ccccc4)n3c2)cc1OC | > 79 µM (inactive)
COc1cc(C(=O)N/N=C/c2ccc(OC(=O)c3ccccc3)c(OC)c2)ccc1O | 6.65 µM
O=C(c1ccco1)N1CCN(C(=O)c2cc(-c3ccncc3)nc3ccc(Br)cc23)CC1 | 13.8 µM (inactive)
CN(C)S(=O)(=O)n1cc(/C=C(\NC(=O)c2ccccc2F)C(=O)NCCN2CCOCC2)c2ccccc21 | 30.8 µM (inactive)
CCOc1cccc(-c2nn3c(-c4ccccn4)nnc3s2)c1 | 6.55 µM
COc1cccc(OC)c1C(=O)Nc1cc(C)nn1-c1nc2ccccc2[nH]1 | 4.1 µM
CC(C)N1C(=O)S/C(=C/c2ccc3c(c2)n(C)c(=O)n3C)C1=O | 1.71 µM
CCC(=O)Oc1cccc(C(=O)Nc2ccc(-c3nnc(-c4ccco4)o3)cc2)c1 | > 79 µM (inactive)
C[C@@H]1CN([C@@H](C)CO)C(=O)c2cc(NC(=O)Nc3ccccc3)ccc2O[C@H]1CN(C)C(=O)Nc1cccc2ccccc12 | 8.2 µM
CC(C)(C)OC(=O)CNC(=O)c1[nH]cnc1C(=O)NCC(=O)OCc1ccccc1 | 0.747 µM
Nc1c(C(=O)N/N=C/c2cccnc2)oc2nc(-c3ccco3)cc(-c3ccco3)c12 | 2.45 µM
COc1cc(/C=C(\C#N)C(=O)Nc2ccccc2)ccc1OCCN1CCOCC1 | 11.7 µM (inactive)
COc1ccc(CCn2c(=N)c(C(=O)NCC3CCCO3)cc3c(=O)n4cccc(C)c4nc32)cc1OC (stereo not drawn) | 2.6 µM
O=C(NCCN1CCOCC1)c1cnn2c(-c3ccccc3)cc(-c3ccccc3)nc12 | > 79 µM (inactive)
COC(=O)c1ccc(N)c(N=CC2=C(O)CC(C)(C)CC2=O)c1 | 7.63 µM
Cc1cccc(NC(=O)c2nc[nH]c2C(=O)NCCCNC(=O)c2[nH]cnc2C(=O)Nc2cccc(C)c2)c1 | 0.729 µM
Cc1ccc(CN(C(=O)CNC(=O)c2cccs2)C(C(=O)NCC2CCCO2)c2ccccc2)cc1 (stereo not drawn) | 14.9 µM (inactive)
COc1cc(OC)cc(C(=O)Nc2ccc(C(=O)Nc3ccccc3OC)cc2)c1 | 10.2 µM (inactive)
O=C(CSc1ccc2nnc(-c3ccc(F)cc3)n2n1)N1CCCc2ccccc21 | 1.21 µM
CCOc1ccccc1N1CC(O)=C(c2nc3ccccc3s2)C1=N | > 79 µM (inactive)
Cn1c(=O)c2[nH]c(NN=Cc3ccc(Br)cc3)nc2n(C)c1=O | 5.14 µM

SMILES | IC50
CC1(C)Cc2c(c(N3CCOCC3)nc3sc4c(NN)ncnc4c23)CS1 | > 79 µM (inactive)
COc1cccc(C(=O)Nc2cccc(-c3nnc(-c4ccco4)o3)c2)c1 | > 79 µM (inactive)
Cc1c(OCC(=O)NCCN2CCOCC2)ccc2c1oc(=O)c1ccccc12 | 5.33 µM
COc1ccccc1NC(=O)COc1ccc(C(=O)OCC(=O)NC(C)(C)C)cc1OC | 13.7 µM (inactive)
Cn1c(=O)[nH]c(=O)c2c1nc(Br)n2CC(O)COc1ccc(Cl)cc1 (stereo not drawn) | 2.44 µM
Cc1nn(-c2ccccc2)c(N2CCCC2)c1/C=N/NC(=O)c1cc(-c2ccccn2)nc2ccccc12 | 7.63 µM
Nc1nonc1-n1nnc(C(=O)N/N=C/c2ccccn2)c1CNc1ccccc1 | 16.3 µM (inactive)
COc1ccc(COc2cc(-c3cccc(OC)c3)nc3ccc(NC(=O)c4cccnc4)cc23)cc1 | 2.36 µM
O=C(Nc1cc(S(=O)(=O)N2CCOCC2)ccc1N1CCCCC1)c1cc(-c2ccccn2)nc2ccccc12 | 3.38 µM
COc1cc(-c2nnc(-c3cc(-c4ccccc4)nc4ccccc34)o2)cc(OC)c1OC | 4.14 µM
CC(OC(=O)c1cc(-c2cccnc2)nc2ccccc12)C(=O)Nc1ccc2ccccc2c1 (stereo not drawn) | 5.97 µM
CC(C)(C)OC(=O)C[C@@H]1C/C=C\C[C@@H](CC(=O)N[C@H](CO)Cc2ccccc2)C(=O)NC[C@@H](c2ccccc2)OC1=O | 17.6 µM (inactive)
N#C/C(=C\c1ccc(-c2cccc([N+](=O)[O-])c2)o1)C(=O)NCCN1CCOCC1 | > 79 µM (inactive)
COc1cc(CCNc2ccc3nnc(-c4ccccc4)n3n2)cc(OC)c1OC | 9.52 µM
Cn1c(=O)[nH]c(=O)c2c1nc(N(CCO)Cc1ccccc1)n2CCCc1ccccc1 | 11.3 µM (inactive)
Cc1cc(N)n(-c2nc(-c3cccnc3)nc3ccccc23)n1 | 16.2 µM (inactive)
CCCNC(=O)c1ccc(N2CCC3(CC2)CC(c2ccccc2)=NO3)c(NC(=O)c2ccco2)c1 | 4.21 µM
Cc1ccc2cc3c(NC(=O)c4cccnc4)nn(C)c3nc2c1 | 15.9 µM (inactive)
COC(=O)c1ccc(C(=O)OC)c(NC(=O)COC(=O)C23CC4CC(CC(O)(C4)C2)C3)c1 | 3.4 µM
O=C(CN1CCCCC1)Nc1nc(-c2ccc(F)c(F)c2)cs1 | > 79 µM (inactive)
O=C(CN1CCN(c2ccccn2)CC1)Nc1ccc([N+](=O)[O-])cc1C(=O)Nc1ccccc1F | 7.08 µM
CCOC(=O)c1cc2c(=O)n3ccccc3nc2n(Cc2ccco2)c1=NC(=O)c1cccnc1 | 19 µM (inactive)
Cn1c2ccccc2c2cc(/C=N/NC(=O)c3cc(O)ccc3O)ccc21 | > 79 µM (inactive)
COc1cc(NC(=O)c2csc(-c3ccncc3)n2)cc(C(=O)Nc2cccc(C(F)(F)F)c2)c1 | 2.7 µM

SMILES | IC50
COc1cccc(Nc2nc3ccccc3n3nnnc23)c1 | > 79 µM (inactive)
COc1cc(-c2cc(NC=O)c3ncc(-c4ccccc4)n3c2)cc(OC)c1OC | > 79 µM (inactive)
COc1ccccc1OP(=O)(Nc1cccnc1)Oc1ccccc1OC | 2.28 µM
O=C(N/N=C\c1ccccn1)c1cccc(C(=O)N/N=C\c2ccccn2)n1 | 2.07 µM
CCOC(=O)C1=C(C)NC(C)=C(C(=O)OCC)C1C(=O)OCC(=O)NC1CCCCC1 | 3.32 µM
COc1ccc(Nc2nnc(-c3ccc(O)cc3)c3ccccc23)cc1C(N)=O | 11.3 µM (inactive)
COc1ccc(-c2ccc3[nH]c4c(c3c2)CCN2C[C@H]3[C@H](C)ON(C)[C@H]3C[C@@H]42)cc1 | > 79 µM (inactive)
C/C(=N\Nc1nnc2c3ccccc3n(C)c2n1)c1ccc(C)o1 | 10.4 µM (inactive)
COc1ccc(CCCNC(=O)C2(C)Cc3c(-c4ccc(NC(C)=O)cc4)ccnc3O2)cc1 (stereo not drawn) | > 79 µM (inactive)
O=C(CCCN1C(=O)c2cccc3cccc(c23)C1=O)N1CCN(c2ccccc2O)CC1 | 4.54 µM
CN(C)S(=O)(=O)c1ccc2[nH]cc(/C=C/c3nc4ccccc4c(=O)n3-c3ccccc3)c2c1 | 1.26 µM
O=C(CN1CCN(Cc2ccccc2)CC1)Nc1ccc([N+](=O)[O-])cc1C(=O)Nc1ccccc1F | 4.75 µM
COc1ccc2[nH]c(=O)c(CN(Cc3cccnc3)S(=O)(=O)c3ccccc3F)cc2c1 | 0.43 µM
O=C(c1cc(=O)[nH]c2ccccc12)N1CCN(S(=O)(=O)c2ccc3ccccc3c2)CC1 | 2.89 µM
COc1cccc(Nc2nc(-c3sc(NC(=O)c4ccco4)nc3C)cs2)c1 | 7.15 µM
N#Cc1cnn2cc(-c3ncc(C(F)(F)F)cc3Cl)cnc12 | 29.9 µM (inactive)
COC(=O)c1ccccc1NC(=O)c1ccc2nccnc2c1 | 50.6 µM (inactive)
O=C(C[C@H]1C/C=C\CC[C@H](Cc2ccc(F)cc2)C(=O)O[C@H](c2ccccc2)CNC1=O)N[C@H](CO)Cc1ccccc1 | > 79 µM (inactive)
COc1ccc(-c2oc3c(OC)c(OC)c(OC)c(O)c3c(=O)c2OC)cc1OC | 12.1 µM (inactive)
COc1ccccc1-c1cc(NC=O)c2ncc(-c3cccc(C(C)=O)c3)n2c1 | 8.53 µM
COc1cc(NC(=O)c2c(OC)cccc2OC)ccc1NC(=O)c1cc2ccccc2o1 | 15.1 µM (inactive)
